Experimental data as given in patent US4594238A (Regents of University of Minnesota, priority 1984, dated 1986).
Where two headings read alike, the source gives them in different places.

Assays:
[1] = mannitol diuresis coupled with intravenous prehydration, humans; cited from earlier work
[2] = mannitol diuresis coupled with intravenous prehydration, dogs; cited from earlier work
[3] = Platinum excretion kinetics / platinum accumulation after DDP; format: in vivo; conditions: four rats
Protocol: Platinum excretion kinetics were measured in four animals by measuring urinary platinum levels every 30 minutes for 4 hours and then every 2 hours for an additional 12 hours. Urinary platinum concentration declined to <10% of maximal concentration within 1.5 hours and >95% of the platinum excreted by the kidneys had appeared in the urine by this time.

[4] = after DDP; cited from earlier work
Rat mammary tumor 13762 = experiment: Comparative tumor response to DDP with and without NaDDTC rescue, Example 2; format: in vivo, Female F344 (Fischer) rats
Protocol: Female F344 (Fischer) rates, initial weight 100-150 g, were obtained from the Charles River Breeding Laboratory, Wilmington, MA. They were housed in methacrylate cages and given Purina rat chow and water ad libitum for at least one week. Lean weight of the rats were 150 g at the onset of experiments unless otherwise noted.
Mammary Tumor 13762 was obtained in the form of an implanted tumor in a female F344 rat. All intravenous injections were carried out under brief ether anesthesia.
Tumor inoculation was carried out as follows: two rats bearing tumors having a mean diameter of 2.5-3.5 cm were sacrificed using ether anesthesia. The tumors were excised immediately, finely minced, combined, and resuspended in 20-40 ml of normal saline. This suspension was filtered through a gauze pad to remove coarse pieces of tissue and the resulting suspension inoculated subcutaneously (0.2-0.5 ml/injection) into the left flank of each rat.

SMILES | Amelioration of acute platinum toxicity [1] | Amelioration of acute platinum toxicity [2] | Fraction of kidney-excreted platinum in the urine by […] [3] [%] | Urinary platinum concentration within […], of maximal concentration [3] [%] | Time of maximal platinum accumulation (renal tubule) [4] [min] | Other (non-relapsed) rats through day 50 (Rat mammary tumor 13762; DDP 2 mg/kg i.v., control, n=8) | Rats with relapse between days 25 and 30 (Rat mammary tumor 13762; DDP 2 mg/kg i.v., control, n=8) | Rats bearing tumors at day 24 (Rat mammary tumor 13762; DDP 2 mg/kg without rescue) | Tumor-free rats at day 24 (Rat mammary tumor 13762; DDP 2 mg/kg without rescue) | Mean tumor diameter at day 30 (Rat mammary tumor 13762; DDP 2 mg/kg without rescue, six rats) [cm] | Mean minimum tumor diameter (Rat mammary tumor 13762; DDP 2 mg/kg without rescue, six tumor-bearing rats, day 24) [cm] | Tumor-free rats by day 28 (Rat mammary tumor 13762; DDP 8 mg/kg, unrescued) | Animals with spontaneous relapse at the original site (Rat mammary tumor 13762; after DDP) | Time of spontaneous relapse after DDP administration (Rat mammary tumor 13762; rat, in vivo)
OC[C@@H](O)[C@@H](O)[C@H](O)[C@H](O)CO [mannitol] | ameliorate acute toxicity | ameliorate acute toxicity | – | – | – | – | – | – | – | – | – | – | – | –
N.N.[Cl][Pt][Cl] [DDP, cis-dichlorodiammineplatinum(II), reference compound] | – | – | > 95 | < 10 | 30 to 60 | essentially free of tumor through day 50 | 2/8 | 6/8 | 2/8 | 2.4 | 1.6 | 3/8 | 25-75% | approximately 15 days
